From patent US20150086646A1, “ANESTHETIC NEUTRALIZATION METHODS” (Instigo Biotech Ltd., priority 2012, published 2015)

System: Male rats (SD Rat)
Assay: Paw thermal sensitivity (Plantar test) in rats after regional anesthesia of the sciatic and saphenous nerves
Format: in vivo
Conditions: for response time relative to group 2 (anesthetic + buffer) / response time (average time before lifting the treated limb): 150 microliters at each locus; for elimination of effects of regional anesthesia (overall conclusion of the model): rat model, lidocaine HCl 2%/epinephrine 1:100,000 nerve block; for response time (average time before lifting the treated limb): 7 min after lidocaine HCl 2%/epinephrine 1:100,000, 5 minutes after administration, anesthetic + buffer group 20-35 seconds, no-anesthetic control 4-6 seconds
Description: An animal model was performed to test ROS/RNS dosages and effects on sensory anesthesia following administration of regional anesthesia, as follows. Male rats (SD Rat) weighing between 300-350 grams, were supplied by Harlan, Israel, and were randomly assigned to experimental groups. Rats were provided with sterile rodent diet with free access to drinking water. In the animal model, a testing chamber (Plantar test 3730 apparatus, made by Ugo Basile) was used in which the rats were placed on a surface which is heated and increases heat gradually. A measurement of time from placement of the rat's hind limb on the hot surface to lifting the hind limb was recorded. […] All rats were habituated to the testing facilities for five days before the model, and then introduced into the testing chamber two days prior to the testing of regional anesthesia in order to habituate rats to the apparatus. One day prior to regional anesthetic administration, baseline body weight measurements and baseline paw thermal sensitivity were recorded. Rats were randomly divided into 7 groups having 4 rats in each group. Group 1 was not administered anesthesia, but was administered saline solution as a vehicle at the time of regional anesthetic administration to groups 2-7. Groups 2 through 7 were administered lidocaine HCl 2%/epinephrine 1:100,000 ready to use solution (hereinafter, “anesthetic,”) 7 minutes before administering test items. Regional anesthetic was injected around the sciatic and saphenous nerves at a volume of 150 microliters at each site of the rat's left hind limb. Injection around the saphenous nerve was performed via local injection to/next to the adductor canal which runs on the medial aspect of the thigh between the vastus medialis and the sartorius muscles, about 2-3 cm below the inguinal canal. Injection around the sciatic nerve was performed via local injection to the sciatic notch, positioned 1 mm from the femoral shaft between the greater trochanter and ischial tuberosity pointing toward the ischium. Five minutes after injection of regional anesthetic, an assessment of the nerve blocks was performed by pinching the rat's paw to determine if the regional anesthetics were properly administered. Seven minutes after regional anesthetic administration, test agents were administered to the same loci, in a volume of 150 microliters at each locus. Groups 1 and 2 were administered a vehicle buffer as test agents. Group 3 was administered 0.1 mM hydrogen peroxide, formulated in saline solution. […] PON which was administered to rats was prepared by commercially available sodium peroxynitrite in NaCl and NaOH each at a concentration of 0.3 molar, available from Cayman Chemical. The commercially available PON was diluted to the desired concentrations for injection, by forming a suspension in 0.3M NaCl, 0.1M glycine having a pH of 10.5. All rats were tested for paw thermal sensitivity at 5, 10, 15, 20, 60 and 120 minutes after administration of the test items using the testing chamber. The results of average time before lifting the treated limb in each rat for each time point was calculated and is depicted in FIG. 2.

| Structure (SMILES) | response time relative to group 2 (anesthetic + buffer) (group 3: 0.1 mM hydrogen peroxide in saline, 5, 10 and 15 minute time points) | statistical significance of the effect on response time (group 3: 0.1 mM hydrogen peroxide, 4 rats per group) | elimination of effects of regional anesthesia (overall conclusion of the model) | response time (average time before lifting the treated limb) (group 4: PON 40 mM) [s] | response time (average time before lifting the treated limb) (group 5: PON 10 mM) [s] | response time relative to group 2 (anesthetic + buffer) (group 6: PON 1 mM, 5 and 10 minute time points) |
| --- | --- | --- | --- | --- | --- | --- |
| OO [H2O2, hydrogen peroxide] | decreased response time | not statistically significant | effective in quickly eliminating effects of regional anesthesia | – | – | – |
| O=NOO [PON, sodium peroxynitrite] | – | – | effective in quickly eliminating effects of regional anesthesia | 4 to 6 | 4 to 6 | improved response time |
